Measured values reported in the CheMixHub viscosity set.

Assay: xn = mol fraction of the nth substance listed

C1CCCCCCC1 + Clc1ccccc1
viscosity [mPa·s], 101 kPa
Settings | x1 = 0.1213 | x1 = 0.2071 | x1 = 0.3009 | x1 = 0.3941 | x1 = 0.5112 | x1 = 0.5915 | x1 = 0.6905 | x1 = 0.799 | x1 = 0.9125
308.15 K | 0.7246 | 0.7681 | 0.8486 | 0.9205 | 1.014 | 1.079 | 1.159 | 1.297 | 1.544
313.15 K | 0.6673 | 0.7011 | 0.7511 | 0.8196 | 0.9056 | 0.951 | 1.042 | 1.197 | 1.402

CCCCC + CCCCCC
298.15 K, 101.33 kPa
Settings | viscosity [mPa·s]
x1 = 0.1045 | 0.2898
x1 = 0.2098 | 0.2802
x1 = 0.3107 | 0.2724
x1 = 0.4113 | 0.2641
x1 = 0.5105 | 0.2574
x1 = 0.6025 | 0.2497
x1 = 0.7041 | 0.2432
x1 = 0.7966 | 0.2364
x1 = 0.8997 | 0.228

CC/C=C\CCO + CCCCCC
viscosity [mPa·s], 100 kPa
Settings | 293.15 K | 298.15 K | 303.15 K | 308.15 K | 313.15 K | 318.15 K
x1 = 0.025 | 0.3277 | 0.3128 | 0.3002 | 0.2869 | 0.2756 | 0.2648
x1 = 0.0501 | 0.3397 | 0.3264 | 0.3121 | 0.2966 | 0.2844 | 0.2727
x1 = 0.1 | 0.3655 | 0.3504 | 0.3343 | 0.3164 | 0.3024 | 0.2892
x1 = 0.2001 | 0.4403 | 0.4139 | 0.392 | 0.369 | 0.3498 | 0.3318
x1 = 0.2999 | 0.5582 | 0.5227 | 0.4881 | 0.4558 | 0.4197 | 0.3967
x1 = 0.4003 | 0.6649 | 0.6196 | 0.5788 | 0.5377 | 0.497 | 0.467
x1 = 0.4994 | 0.8527 | 0.7851 | 0.7244 | 0.6686 | 0.6173 | 0.5715
x1 = 0.5998 | 1.103 | 1.005 | 0.9179 | 0.8404 | 0.7733 | 0.7131
x1 = 0.6998 | 1.451 | 1.306 | 1.18 | 1.07 | 0.978 | 0.889
x1 = 0.7995 | 1.878 | 1.701 | 1.522 | 1.366 | 1.238 | 1.126
x1 = 0.8996 | 2.51 | 2.234 | 1.981 | 1.763 | 1.58 | 1.429

CS(C)=O + CCCO
Settings | viscosity [mPa·s]
298.15 K, 101.3 kPa, x1 = 0.0789 | 1.75
298.15 K, 101.3 kPa, x1 = 0.1613 | 1.651
298.15 K, 101.3 kPa, x1 = 0.339 | 1.535
298.15 K, 101.3 kPa, x1 = 0.434 | 1.541
298.15 K, 101.3 kPa, x1 = 0.5363 | 1.562
298.15 K, 101.3 kPa, x1 = 0.6421 | 1.641
298.15 K, 101.3 kPa, x1 = 0.755 | 1.736
298.15 K, 101.3 kPa, x1 = 0.8737 | 1.845
298.15 K, 101.31 kPa, x1 = 0.1053 | 1.666
298.15 K, 101.31 kPa, x1 = 0.2078 | 1.55
298.15 K, 101.31 kPa, x1 = 0.413 | 1.496
298.15 K, 101.31 kPa, x1 = 0.5099 | 1.527
298.15 K, 101.31 kPa, x1 = 0.7025 | 1.664
298.15 K, 101.31 kPa, x1 = 0.7984 | 1.746
298.15 K, 101.31 kPa, x1 = 0.9011 | 1.871
303.15 K, 101 kPa, x1 = 0.5 | 1.425
303.15 K, 101.3 kPa, x1 = 0.0789 | 1.63
303.15 K, 101.3 kPa, x1 = 0.1613 | 1.54
303.15 K, 101.3 kPa, x1 = 0.2478 | 1.452
303.15 K, 101.3 kPa, x1 = 0.5363 | 1.436
303.15 K, 101.3 kPa, x1 = 0.6421 | 1.495
303.15 K, 101.3 kPa, x1 = 0.755 | 1.57
303.15 K, 101.3 kPa, x1 = 0.8737 | 1.676
308.15 K, 101.31 kPa, x1 = 0.2973 | 1.249
308.15 K, 101.31 kPa, x1 = 0.5099 | 1.29
308.15 K, 101.31 kPa, x1 = 0.5989 | 1.329
308.15 K, 101.31 kPa, x1 = 0.7984 | 1.465
308.15 K, 101.31 kPa, x1 = 0.9011 | 1.56
313.15 K, 101 kPa, x1 = 0.7998 | 1.335
318.15 K, 101.31 kPa, x1 = 0.1053 | 1.116
318.15 K, 101.31 kPa, x1 = 0.2078 | 1.064
318.15 K, 101.31 kPa, x1 = 0.2973 | 1.048
318.15 K, 101.31 kPa, x1 = 0.413 | 1.064
318.15 K, 101.31 kPa, x1 = 0.5099 | 1.093
318.15 K, 101.31 kPa, x1 = 0.5989 | 1.129
318.15 K, 101.31 kPa, x1 = 0.7025 | 1.189
318.15 K, 101.31 kPa, x1 = 0.7984 | 1.239
318.15 K, 101.31 kPa, x1 = 0.9011 | 1.314

CS(C)=O + CN(C)C=O
Settings | viscosity [mPa·s]
298 K, 101.3 kPa, x1 = 0.1668 | 0.924
298 K, 101.3 kPa, x1 = 0.3195 | 1.036
298 K, 101.3 kPa, x1 = 0.5201 | 1.242
298 K, 101.3 kPa, x1 = 0.6689 | 1.474
298 K, 101.3 kPa, x1 = 0.8514 | 1.785
298.15 K, 101 kPa, x1 = 0.1077 | 0.89
298.15 K, 101 kPa, x1 = 0.2134 | 0.99
298.15 K, 101 kPa, x1 = 0.4199 | 1.11
298.15 K, 101 kPa, x1 = 0.5205 | 1.24
298.15 K, 101 kPa, x1 = 0.6195 | 1.37
298.15 K, 101 kPa, x1 = 0.8128 | 1.61
298.15 K, 101 kPa, x1 = 0.9071 | 1.78
303.15 K, 101 kPa, x2 = 0.1 | 1.617
303.15 K, 101 kPa, x2 = 0.2 | 1.466
303.15 K, 101 kPa, x2 = 0.3 | 1.331
303.15 K, 101 kPa, x2 = 0.4001 | 1.228
303.15 K, 101 kPa, x2 = 0.5002 | 1.109
303.15 K, 101 kPa, x2 = 0.6001 | 1.025
303.15 K, 101 kPa, x2 = 0.7001 | 0.952
303.15 K, 101 kPa, x2 = 0.8 | 0.877
303.15 K, 101 kPa, x2 = 0.9 | 0.814
313.15 K, 101 kPa, x2 = 0.1 | 1.365
313.15 K, 101 kPa, x2 = 0.2 | 1.248
313.15 K, 101 kPa, x2 = 0.3 | 1.141
313.15 K, 101 kPa, x2 = 0.4001 | 1.057
313.15 K, 101 kPa, x2 = 0.5002 | 0.969
313.15 K, 101 kPa, x2 = 0.6001 | 0.9
313.15 K, 101 kPa, x2 = 0.7001 | 0.839
313.15 K, 101 kPa, x2 = 0.8 | 0.775
313.15 K, 101 kPa, x2 = 0.9 | 0.724
318 K, 101.3 kPa, x1 = 0.159 | 0.7095
318 K, 101.3 kPa, x1 = 0.3184 | 0.7948
318 K, 101.3 kPa, x1 = 0.521 | 0.9101
318 K, 101.3 kPa, x1 = 0.6667 | 1.032
318 K, 101.3 kPa, x1 = 0.8614 | 1.226
323.15 K, 101 kPa, x2 = 0.1 | 1.17
323.15 K, 101 kPa, x2 = 0.2 | 1.075
323.15 K, 101 kPa, x2 = 0.3 | 0.99
323.15 K, 101 kPa, x2 = 0.4001 | 0.922
323.15 K, 101 kPa, x2 = 0.5002 | 0.85
323.15 K, 101 kPa, x2 = 0.6001 | 0.792
323.15 K, 101 kPa, x2 = 0.7001 | 0.74
323.15 K, 101 kPa, x2 = 0.8 | 0.69
323.15 K, 101 kPa, x2 = 0.9 | 0.647

CCN(CC)CCO + O=C1CCCCC1
viscosity [mPa·s], 101 kPa
Settings | 298.15 K | 308.15 K | 318.15 K
x2 = 0.0501 | 3.267 | 2.46 | 1.885
x2 = 0.1004 | 3.133 | 2.336 | 1.766
x2 = 0.15 | 3.002 | 2.228 | 1.663
x2 = 0.2 | 2.878 | 2.126 | 1.564
x2 = 0.3002 | 2.662 | 1.939 | 1.417
x2 = 0.4 | 2.49 | 1.799 | 1.309
x2 = 0.5 | 2.344 | 1.703 | 1.24
x2 = 0.5999 | 2.234 | 1.647 | 1.224
x2 = 0.6503 | 2.191 | 1.639 | 1.229
x2 = 0.6995 | 2.159 | 1.639 | 1.249
x2 = 0.7997 | 2.127 | 1.663 | 1.306
x2 = 0.8997 | 2.121 | 1.717 | 1.389
x2 = 0.9497 | 2.133 | 1.747 | 1.443
